Read-outs that look alike come from different tables or passages of the source. One block for each compound: values may come before it.
Assays:
[1] = biological target: T1, FGFR1 (Homo sapiens, UniProt P11362); conditions: cited from earlier work
[2] = system: any gene target; conditions: cited from earlier work
[3] = system: VEGFR2 and FGFR1; assay: Selection of compounds that selectively inhibit both VEGFR2 and FGFR1 (average relative IC50); format: biochemical; conditions: average of VEGFR2 and FGFR1 relative IC50;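 also: relative IC50 is the IC50 for VEGFR2 or FGFR1 divided by the next-lowest IC50 reported against any target gene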
[4] = system: Zmpste24−/− mice; assay: Mouse model of progeria: body fat (Echo MRI), lean muscle, body weight, intrascapular brown fat; format: in vivo; conditions: for Body fat (Echo MRI) vs vehicle / Intrascapular brown fat mass (percent of body weight) vs vehicle: Brivanib alaninate 50, SU5402 25, Cediranib maleate 5, Regorafenib 10, infigratinib 5 mg/kg
Protocol: Zmpste24 mice, a progeria model mouse line, were dosed with either 50 mg/kg Brivanib alaninate for 56 days, 5 days on, 2 days off (QD5), or vehicle alone. The dose was administered via oral gavage as a suspension of 18% (w/v) PEG400 2% (w/v) Tween-80 in water . The vehicle alone was 18% (w/v) PEG400 2% (w/v) Tween-80 in water.
The body fat of the mice was measured by an Echo MRI throughout the treatment.
Samples of intrascapular brown adipose tissue from 15 week old mice treated with Brivanib Alaninate or vehicle for 56 days underwent Hematoxylin and Eosin (H&E) staining.
Zmpste24−/− mice, a progeria model mouse line, were dosed with either 25 mg/kg SU5402 for 56 days, 5 days on, 2 days off (QD5) or vehicle alone. The dose was administered via oral gavage as a suspension of 5% (w/v) DMSO 9% (w/v) PEG400 1% (w/v) Tween-80 in saline. The vehicle alone was 5% (w/v) DMSO 9% (w/v) PEG400 1% (w/v) Tween-80 in saline.
The body fat of the mice was measured by an Echo […]. Lean muscle and body weight were also measured.
The dose was administered via oral gavage as a suspension of 18% (w/v) PEG400 2% (w/v) Tween-80 in water . The vehicle alone was 18% (w/v) PEG400 2% (w/v) Tween-80 in water.
The body fat of the mice was measured by an Echo MRI. […] There was also no alteration of intrascapular brown adipose tissue mass (FIG. 5D).
The dose was administered via oral gavage as a suspension of 18% (w/v) PEG400 2% (w/v) Tween-80 in water. The vehicle alone was 18% (w/v) PEG400 2% (w/v) Tween-80 in water.
The body fat of the mice was measured by an Echo MM. […] There was also no alteration of intrascapular brown adipose tissue mass (FIG. 6D).
The body fat of the mice was measure by an Echo MRI. […] There was also no alteration of intrascapular brown adipose tissue mass (FIG. 7D). […]

[5] = system: Zmpste24−/− mice; assay: Mouse model of progeria: bone loss score of vertebrae and femur (H&E sections); format: in vivo; conditions: 50 mg/kg oral QD5 56 days, 15 weeks of age
Protocol: Zmpste24−/− mice were dosed with either 50 mg/kg Brivanib Alaninate for 56 days, 5 days on, 2 days off (QD5), or vehicle alone. The dose was administered via oral gavage as a suspension of 18% (w/v) PEG400 2% Tween-80 (w/v) in water . The vehicle alone was 18% (w/v) PEG400 2% (w/v) Tween-80 in water.
The mice were assessed for bone loss in the vertebrae and femur at 15 weeks of age. Bone loss was scored by a pathologist using H&E stained sections of vertebrae or femur samples by the following criteria:
The mice that are treated with a selective VEGFR2 inhibitor and a selective FGFR1 inhibitor are also assessed for bone loss in the vertebrae and femur. Bone loss is scored by a pathologist using the criteria in Example 2.

[6] = system: C57BL6 mice fed a high fat, high cholesterol, high fructose diet; assay: Mouse model of diet induced fatty liver disease; format: in vivo; conditions: 28 days
[7] = biological target: T2, VEGFR2 (Homo sapiens, UniProt P35968); conditions: relative IC50: reported IC50 toward VEGFR2 divided by next lowest reported IC50 to any gene target
[8] = biological target: T1, FGFR1; conditions: relative IC50: reported IC50 toward FGFR1 divided by next lowest reported IC50 to any gene target
[9] = biological target: T2, VEGFR2; conditions: read-out: VEGFR2 IC50_μM; reported IC50 to VEGFR2; cited from earlier work
[10] = Table 2, list of selective inhibitors of FGFR1, read-out: FGFR1 IC50_μM: reported IC50 to FGFR1
[11] = Table 2, lowest reported IC50 to any gene target, read-out: Min IC50_μM
[12] = reported IC50 to FGFR1, read-out: FGFR1 IC50_μM
[13] = lowest reported IC50 to any gene target, read-out: Min IC50_μM
[14] = 50 mg/kg i.p. once a day, relative to standard diet
[15] = lowest reported IC50 to any gene target, read-out: min IC50
[16] = oral gavage QD5 for 56 days, SU5402 25, Cediranib maleate 5, Regorafenib 10, infigratinib 5 mg/kg

T1 sequence (P11362 22-822, species assumed): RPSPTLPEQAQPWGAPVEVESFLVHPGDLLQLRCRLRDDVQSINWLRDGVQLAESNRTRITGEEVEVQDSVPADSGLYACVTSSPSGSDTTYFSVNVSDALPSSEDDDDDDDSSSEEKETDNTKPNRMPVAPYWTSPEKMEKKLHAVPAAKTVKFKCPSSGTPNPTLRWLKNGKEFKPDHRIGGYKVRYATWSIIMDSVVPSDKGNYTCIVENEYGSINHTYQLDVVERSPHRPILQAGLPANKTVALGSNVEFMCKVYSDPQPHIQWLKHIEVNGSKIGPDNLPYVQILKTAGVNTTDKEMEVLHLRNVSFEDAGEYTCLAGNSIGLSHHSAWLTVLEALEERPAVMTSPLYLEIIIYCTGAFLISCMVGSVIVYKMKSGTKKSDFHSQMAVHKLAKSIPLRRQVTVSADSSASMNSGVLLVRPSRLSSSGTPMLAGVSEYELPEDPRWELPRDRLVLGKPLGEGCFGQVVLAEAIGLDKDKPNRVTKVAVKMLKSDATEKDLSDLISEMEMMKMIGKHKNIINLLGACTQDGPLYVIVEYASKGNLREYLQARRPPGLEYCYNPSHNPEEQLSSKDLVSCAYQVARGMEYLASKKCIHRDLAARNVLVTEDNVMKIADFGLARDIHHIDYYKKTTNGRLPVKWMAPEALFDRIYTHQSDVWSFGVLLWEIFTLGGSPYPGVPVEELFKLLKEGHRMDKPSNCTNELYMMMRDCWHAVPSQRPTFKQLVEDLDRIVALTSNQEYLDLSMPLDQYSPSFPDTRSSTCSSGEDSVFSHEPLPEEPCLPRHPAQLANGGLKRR
T2 sequence (P35968 20-1356, species assumed): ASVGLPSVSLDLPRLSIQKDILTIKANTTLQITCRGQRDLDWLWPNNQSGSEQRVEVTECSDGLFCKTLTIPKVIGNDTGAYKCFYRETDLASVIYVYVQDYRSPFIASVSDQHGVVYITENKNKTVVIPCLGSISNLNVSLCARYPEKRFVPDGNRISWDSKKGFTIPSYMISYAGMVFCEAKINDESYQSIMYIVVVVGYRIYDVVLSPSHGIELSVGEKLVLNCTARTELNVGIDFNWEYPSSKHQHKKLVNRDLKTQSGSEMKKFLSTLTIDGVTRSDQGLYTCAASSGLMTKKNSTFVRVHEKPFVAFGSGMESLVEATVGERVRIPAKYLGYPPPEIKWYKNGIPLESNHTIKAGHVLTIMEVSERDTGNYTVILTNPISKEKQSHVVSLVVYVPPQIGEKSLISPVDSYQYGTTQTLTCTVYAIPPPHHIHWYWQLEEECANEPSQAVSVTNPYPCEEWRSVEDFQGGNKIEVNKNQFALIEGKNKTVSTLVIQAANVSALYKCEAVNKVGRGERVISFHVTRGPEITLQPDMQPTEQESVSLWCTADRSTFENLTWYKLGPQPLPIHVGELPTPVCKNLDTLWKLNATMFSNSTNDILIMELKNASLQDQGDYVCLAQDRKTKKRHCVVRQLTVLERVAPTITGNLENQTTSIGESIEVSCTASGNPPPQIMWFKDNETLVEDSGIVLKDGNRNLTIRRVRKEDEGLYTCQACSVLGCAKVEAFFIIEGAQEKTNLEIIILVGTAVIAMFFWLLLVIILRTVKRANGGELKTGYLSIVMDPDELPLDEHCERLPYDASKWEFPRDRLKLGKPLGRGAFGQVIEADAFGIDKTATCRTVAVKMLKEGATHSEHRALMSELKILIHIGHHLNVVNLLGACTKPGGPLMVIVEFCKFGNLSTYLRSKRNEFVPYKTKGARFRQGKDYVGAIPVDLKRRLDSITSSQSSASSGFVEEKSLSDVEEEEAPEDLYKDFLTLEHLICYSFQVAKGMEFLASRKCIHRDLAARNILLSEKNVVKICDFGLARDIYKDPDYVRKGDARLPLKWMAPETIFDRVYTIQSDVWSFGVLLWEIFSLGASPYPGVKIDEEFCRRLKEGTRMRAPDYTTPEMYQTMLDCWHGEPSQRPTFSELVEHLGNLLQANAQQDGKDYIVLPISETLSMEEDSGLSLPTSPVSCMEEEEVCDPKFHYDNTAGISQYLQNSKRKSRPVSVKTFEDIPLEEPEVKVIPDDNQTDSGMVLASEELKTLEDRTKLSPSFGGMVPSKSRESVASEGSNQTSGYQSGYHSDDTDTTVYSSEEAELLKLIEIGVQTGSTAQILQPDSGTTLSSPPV

Structure (SMILES): O=c1[nH]c(=O)n(-c2ccc(Oc3ccccc3)cc2)c(=O)n1-c1ccccc1 [compound 139434105]
IC50 [1, 10]: 890 nM
IC50 [2, 11]: 1300 nM

Structure (SMILES): Cc1cc(C)c(C)c(-c2cc3cnc(NCCCN4CCN(C)CC4)nc3nc2NC(=O)NC(C)(C)C)c1C [compound 10602350]
IC50 [1, 12]: 140 nM
IC50 [2, 13]: 140 nM

Structure (SMILES): COc1cc(CCc2cc(Nc3ncnc4cc(N5CCN6CCCCC6C5)ccc34)n[nH]2)cc(OC)c1 (centres unmarked) [compound 127047969]
IC50 [1, 12]: 0.2 nM
IC50 [2, 13]: 0.2 nM

Structure (SMILES): COC(=O)C1=C(c2ccccc2)c2ccncc2C1=O [compound 44330158]
IC50 [1, 12]: 6800 nM
IC50 [2, 13]: 6800 nM

VEGFR2, rIC50 [7]: 0.9
FGFR1, rIC50 [8]: 1.1
Structure (SMILES): Cc1cc2c(F)c(Oc3ncnn4cc(OC[C@@H](C)OC(=O)[C@@H](C)N)c(C)c34)ccc2[nH]1 [compound 11234052, Brivanib alaninate (Brivanib)]
avg rIC50 [3]: 1.0
Lipid content in intrascapular brown adipose tissue (H&E) ([4]; 15 week old mice, 50 mg/kg for 56 days): increased lipid content
Body fat (Echo MRI) vs vehicle ([4]; oral gavage QD5 for 56 days): increase in body mass starting at 6 weeks of age
Intrascapular brown fat mass (percent of body weight) vs vehicle ([4]; oral gavage QD5 for 56 days): made up for more of the percent of the body weight
Bone loss score, femur: most severe score in the group [5]: 0.5 (0.5 = less than 1%)
Bone loss score, vertebrae: most severe score in the group [5]: 4 (4 = 51-75%)
Bone loss scores vs vehicle [5]: lower bone loss scores
Share of mice with the most severe score, femur [5]: about 30%
Share of mice with the most severe score, vertebrae [5]: about 15%
Liver lipid content (H&E) vs vehicle ([6]; 25 mg/kg i.p. once a day): decreased liver lipid content
Size of adipocytes in the epididymal fat pad vs vehicle ([6]; 25 mg/kg i.p. once a day): decreased the size of adipocytes
Thickness of the abdominal subcutaneous adipose ([6]; 25 mg/kg i.p. once a day): increased in the thickness
Increase in blood urea nitrogen vs fatty liver diet + vehicle [6, 14]: less of an increase
Increase in body weight vs fatty liver diet + vehicle [6, 14]: less of an increase
Increase in liver mass vs fatty liver diet + vehicle [6, 14]: less of an increase
Increase in serum cholesterol vs fatty liver diet + vehicle [6, 14]: less of an increase
Increase in serum triglycerides vs fatty liver diet + vehicle [6, 14]: less of an increase
IC50 [9]: 25 nM
IC50 [2, 15]: 25 nM
IC50 ([2]; next lowest IC50 value to any gene target, read-out: Min IC50_μM): 28 nM

Structure (SMILES): CC(C)(C)NC(=O)Nc1nc2nc(N)ncc2cc1-c1c(Cl)cccc1Cl [compound 5328112]
IC50 [1, 12]: 110 nM
IC50 [2, 13]: 130 nM

Structure (SMILES): Cc1oc2c(c1C(=O)N1CC[C@H](N)C1)C(=O)c1c(c(O)c3ccccc3c1O)C2=O [compound 137631210]
IC50 [1, 12]: 5000 nM
IC50 [2, 13]: 5000 nM

VEGFR2, rIC50 [7]: 1.1
FGFR1, rIC50 [8]: 1.0
Structure (SMILES): CONC(=O)c1cc(Nc2ncnn3cc(-c4nnc(C(F)(F)F)o4)c(C(C)C)c23)c(F)cc1F [compound 11488852, 2,4-Difluoro-5-[5-isopropyl-6-(5-trifluoromethyl-[1,3,4]oxadiazol-2-yl)-pyrrolo[2,1-f][1,2,4]triazin-4-ylamino]-N-methoxy-benzamide, reference compound]
avg rIC50 [3]: 1.0
IC50 ([1]; read-out: FGFR1 IC50_μM, reported IC50 to FGFR1): 33 nM
IC50 [2, 13]: 33 nM
IC50 [2, 15]: 33 nM

Structure (SMILES): CCN1CCN(c2ccc(Nc3cc(N(C)C(=O)Nc4c(Cl)c(OC)cc(OC)c4Cl)ncn3)cc2)CC1 [Infigratinib]
Body fat (Echo MRI) vs vehicle ([4]; oral gavage QD5 for 56 days): did not show an increase
Intrascapular brown fat mass (percent of body weight) vs vehicle ([4]; oral gavage QD5 for 56 days): no alteration
Body weight vs vehicle [4, 16]: did not show an increase
Lean muscle vs vehicle [4, 16]: did not show an increase

VEGFR2, rIC50 [7]: 3.0
FGFR1, rIC50 [8]: 0.3
Structure (SMILES): NS(=O)(=O)c1ccc2c(c1)/C(=C/c1[nH]c3c(c1CCC(=O)O)CCCC3)C(=O)N2 [compound 5329165, Indolin-2-one deriv. 9c, reference compound]
avg rIC50 [3]: 1.7
IC50 [1, 10]: 200 nM
IC50 [2, 11]: 600 nM
IC50 [2, 15]: 200 nM
